{"source": "patent US20150307938A1", "about": "“METHOD TO IDENTIFY A NOVEL CLASS OF IMMUNOLOGIC ADJUVANTS” (Lancell, L.L.C., priority 2011, published 2015)", "key": {"[1]": {"system": "Fluzone", "design": "species or system C57BL/6 mice", "conditions": "mouse, in vivo"}, "[2]": {"system": "Murine Skin Dendritic Cells", "experiment": "Activation of murine skin dendritic cells by DBP vs. DBlT (DC per lymph node, CD86)", "type": "in vivo", "conditions": "topical treatment"}, "[3]": {"system": "skin dendritic cells", "experiment": "Flow cytometric analysis of Ahr−/− response to topical DBP", "conditions": "topical application"}, "[4]": {"system": "skin", "experiment": "Affymetrix microarray of skin, DBP-4 hr and analogs vs. untreated; gene selection by log-2 fold change, Wilcoxon, Kendall tau (Tables 8, 9)", "type": "in vivo, mouse"}}, "note": "Where a name gives a salt, the structure may show the parent alone.", "data": [{"smiles": "CCCCOC(=O)[C@H](O)[C@@H](O)C(=O)OCCCC", "note": "[DBlT, dibutyl L tartrate]", "values": [{"measurement": "HAI titer / adjuvant effect with the same dose of Fluzone", "setting": "[1]", "value": "almost but not quite as good as DBT had"}, {"measurement": "MFI CD86", "setting": "[2]", "value": "634 (126)"}]}, {"smiles": "O=[N+]([O-])c1ccc(F)c([N+](=O)[O-])c1", "note": "[dinitrofluorobenzene, reference compound]", "values": [{"measurement": "skin dendritic cell response in AhR−/− mice", "setting": "[3]", "value": "severely impaired"}]}, {"smiles": "COC(=O)c1ccccc1C(=O)OC", "note": "[DMP, dimethylphthalate]", "values": [{"measurement": "Log2 Expression Level", "setting": "[4]; gene #1 of Table 8", "value": 5.82}, {"measurement": "Log2 Expression Level", "setting": "[4]; gene #2 of Table 8", "value": 6.47}, {"measurement": "Log2 Expression Level", "setting": "[4]; gene #3 of Table 8", "value": 8.83}, {"measurement": "Log2 Expression Level", "setting": "[4]; gene #4 of Table 8", "value": 8.83}, {"measurement": "Log2 Expression Level", "setting": "[4]; gene #5 of Table 8", "value": 6.08}, {"measurement": "Log2 Expression Level", "setting": "[4]; gene #6 of Table 8", "value": 6.09}, {"measurement": "Log2 Expression Level", "setting": "[4]; gene #7 of Table 8", "value": 5.32}, {"measurement": "Log2 Expression Level", "setting": "[4]; gene #8 of Table 8", "value": 6.09}, {"measurement": "Log2 Expression Level", "setting": "[4]; gene #9 of Table 8", "value": 6.09}, {"measurement": "Log2 Expression Level", "setting": "[4]; gene #10 of Table 8", "value": 6.09}, {"measurement": "Log2 Expression Level", "setting": "[4]; gene #11 of Table 8", "value": 5.32}, {"measurement": "Log2 Expression Level", "setting": "[4]; gene #12 of Table 8", "value": 5.32}, {"measurement": "Log2 Expression Level", "setting": "[4]; gene #13 of Table 8", "value": 5.32}, {"measurement": "Log2 Expression Level", "setting": "[4]; gene #14 of Table 8", "value": 4.91}, {"measurement": "Log2 Expression Level", "setting": "[4]; gene #15 of Table 8", "value": 4.91}, {"measurement": "Log2 Expression Level", "setting": "[4]; gene #16 of Table 8", "value": 6.50}, {"measurement": "Log2 Expression Level", "setting": "[4]; gene #17 of Table 8", "value": 8.80}, {"measurement": "Log2 Expression Level", "setting": "[4]; gene #18 of Table 8", "value": 8.80}, {"measurement": "Log2 Expression Level", "setting": "[4]; gene #19 of Table 8", "value": 8.29}, {"measurement": "Log2 Expression Level", "setting": "[4]; gene #20 of Table 8", "value": 8.26}, {"measurement": "Log2 Expression Level", "setting": "[4]; gene #21 of Table 8", "value": 7.91}, {"measurement": "Log2 Expression Level", "setting": "[4]; gene #22 of Table 8", "value": 5.99}, {"measurement": "Log2 Expression Level", "setting": "[4]; gene #23 of Table 8", "value": 5.65}, {"measurement": "Log2 Expression Level", "setting": "[4]; gene #24 of Table 8", "value": 7.33}, {"measurement": "Log2 Expression Level", "setting": "[4]; gene #25 of Table 8", "value": 7.33}, {"measurement": "Log2 Expression Level", "setting": "[4]; gene #26 of Table 8", "value": 7.55}, {"measurement": "Log2 Expression Level", "setting": "[4]; gene #27 of Table 8", "value": 7.55}, {"measurement": "Log2 Expression Level", "setting": "[4]; gene #28 of Table 8", "value": 7.55}, {"measurement": "Log2 Expression Level", "setting": "[4]; gene #29 of Table 8", "value": 5.77}, {"measurement": "Log2 Expression Level", "setting": "[4]; gene #30 of Table 8", "value": 8.30}, {"measurement": "Log2 Expression Level", "setting": "[4]; gene #31 of Table 8", "value": 8.30}, {"measurement": "Log2 Expression Level", "setting": "[4]; gene #32 of Table 8", "value": 8.30}, {"measurement": "Log2 Expression Level", "setting": "[4]; gene #33 of Table 8", "value": 5.48}, {"measurement": "Log2 Expression Level", "setting": "[4]; gene #34 of Table 8", "value": 6.50}, {"measurement": "Log2 Expression Level", "setting": "[4]; gene #35 of Table 8", "value": 6.50}, {"measurement": "Log2 Expression Level", "setting": "[4]; gene #36 of Table 8", "value": 8.83}, {"measurement": "Log2 Expression Level", "setting": "[4]; gene #37 of Table 8", "value": 8.83}, {"measurement": "Log2 Expression Level", "setting": "[4]; gene #38 of Table 8", "value": 8.83}, {"measurement": "Log2 Expression Level", "setting": "[4]; gene #39 of Table 8", "value": 7.03}, {"measurement": "Log2 Expression Level", "setting": "[4]; gene #40 of Table 8", "value": 7.09}, {"measurement": "Log2 Expression Level", "setting": "[4]; gene #41 of Table 8", "value": 7.32}, {"measurement": "Log2 Expression Level", "setting": "[4]; gene #42 of Table 8", "value": 6.91}, {"measurement": "Log2 Expression Level", "setting": "[4]; gene #43 of Table 8", "value": 6.91}, {"measurement": "Log2 Expression Level", "setting": "[4]; gene #44 of Table 8", "value": 7.32}, {"measurement": "Log2 Expression Level", "setting": "[4]; gene #45 of Table 8", "value": 6.91}, {"measurement": "Log2 Expression Level", "setting": "[4]; gene #46 of Table 8", "value": 7.32}, {"measurement": "Log2 Expression Level", "setting": "[4]; gene #47 of Table 8", "value": 8.08}, {"measurement": "Log2 Expression Level", "setting": "[4]; gene #48 of Table 8", "value": 8.08}, {"measurement": "Log2 Expression Level", "setting": "[4]; gene #49 of Table 8", "value": 8.08}, {"measurement": "Log2 Expression Level", "setting": "[4]; gene #50 of Table 8", "value": 9.13}, {"measurement": "Log2 Expression Level", "setting": "[4]; gene #51 of Table 8", "value": 7.49}, {"measurement": "Log2 Expression Level", "setting": "[4]; gene #52 of Table 8", "value": 9.61}, {"measurement": "Log2 Expression Level", "setting": "[4]; gene #53 of Table 8", "value": 8.18}, {"measurement": "Log2 Expression Level", "setting": "[4]; gene #54 of Table 8", "value": 9.63}, {"measurement": "Log2 Expression Level", "setting": "[4]; gene #55 of Table 8", "value": 6.47}, {"measurement": "Log2 Expression Level", "setting": "[4]; gene #56 of Table 8", "value": 9.09}, {"measurement": "Log2 Expression Level", "setting": "[4]; gene #57 of Table 8", "value": 8.30}, {"measurement": "Log2 Expression Level", "setting": "[4]; gene #58 of Table 8", "value": 8.81}, {"measurement": "Log2 Expression Level", "setting": "[4]; gene #59 of Table 8", "value": 8.07}, {"measurement": "Log2 Expression Level", "setting": "[4]; gene #60 of Table 8", "value": 6.96}, {"measurement": "Log2 Expression Level", "setting": "[4]; gene #61 of Table 8", "value": 11.13}, {"measurement": "Log2 Expression Level", "setting": "[4]; gene #62 of Table 8", "value": 7.95}, {"measurement": "Log2 Expression Level", "setting": "[4]; gene #63 of Table 8", "value": 10.28}, {"measurement": "Log2 Expression Level", "setting": "[4]; gene #64 of Table 8", "value": 10.44}, {"measurement": "Log2 Expression Level", "setting": "[4]; gene #65 of Table 8", "value": 6.81}, {"measurement": "Log2 Expression Level", "setting": "[4]; gene #66 of Table 8", "value": 8.09}, {"measurement": "Log2 Expression Level", "setting": "[4]; gene #67 of Table 8", "value": 4.20}, {"measurement": "Log2 Expression Level", "setting": "[4]; gene #68 of Table 8", "value": 7.36}, {"measurement": "Log2 Expression Level", "setting": "[4]; gene #69 of Table 8", "value": 5.28}, {"measurement": "Log2 Expression Level", "setting": "[4]; gene #70 of Table 8", "value": 3.86}, {"measurement": "Log2 Expression Level", "setting": "[4]; gene #71 of Table 8", "value": 7.42}, {"measurement": "Log2 Expression Level", "setting": "[4]; gene #72 of Table 8", "value": 7.77}, {"measurement": "Log2 Expression Level", "setting": "[4]; gene #73 of Table 8", "value": 5.38}, {"measurement": "Log2 Expression Level", "setting": "[4]; gene #74 of Table 8", "value": 7.07}, {"measurement": "Log2 Expression Level", "setting": "[4]; gene #75 of Table 8", "value": 8.29}, {"measurement": "Log2 Expression Level", "setting": "[4]; gene #76 of Table 8", "value": 4.15}, {"measurement": "Log2 Expression Level", "setting": "[4]; gene #77 of Table 8", "value": 8.59}, {"measurement": "Log2 Expression Level", "setting": "[4]; gene #78 of Table 8", "value": 9.90}, {"measurement": "Log2 Expression Level", "setting": "[4]; gene #79 of Table 8", "value": 7.10}, {"measurement": "Log2 Expression Level", "setting": "[4]; gene #80 of Table 8", "value": 12.64}, {"measurement": "Log2 Expression Level", "setting": "[4]; gene #81 of Table 8", "value": 5.57}, {"measurement": "Log2 Expression Level", "setting": "[4]; gene #82 of Table 8", "value": 4.77}, {"measurement": "Log2 Expression Level", "setting": "[4]; gene #83 of Table 8", "value": 6.70}, {"measurement": "Log2 Expression Level", "setting": "[4]; gene #84 of Table 8", "value": 6.49}, {"measurement": "Log2 Expression Level", "setting": "[4]; gene #85 of Table 8", "value": 4.59}, {"measurement": "Log2 Expression Level", "setting": "[4]; gene #86 of Table 8", "value": 6.27}, {"measurement": "Log2 Expression Level", "setting": "[4]; gene #87 of Table 8", "value": 8.57}, {"measurement": "Log2 Expression Level", "setting": "[4]; gene #88 of Table 8", "value": 5.28}, {"measurement": "Log2 Expression Level", "setting": "[4]; gene #89 of Table 8", "value": 5.43}, {"measurement": "Log2 Expression Level", "setting": "[4]; gene #90 of Table 8", "value": 9.55}, {"measurement": "Log2 Expression Level", "setting": "[4]; gene #91 of Table 8", "value": 6.99}, {"measurement": "Log2 Expression Level", "setting": "[4]; gene #92 of Table 8", "value": 6.96}, {"measurement": "Log2 Expression Level", "setting": "[4]; gene #93 of Table 8", "value": 8.40}, {"measurement": "Log2 Expression Level", "setting": "[4]; gene #94 of Table 8", "value": 7.22}, {"measurement": "Log2 Expression Level", "setting": "[4]; gene #95 of Table 8", "value": 5.77}, {"measurement": "Log2 Expression Level", "setting": "[4]; gene #96 of Table 8", "value": 7.21}, {"measurement": "Log2 Expression Level", "setting": "[4]; gene #97 of Table 8", "value": 5.27}, {"measurement": "Log2 Expression Level", "setting": "[4]; gene #98 of Table 8", "value": 4.12}, {"measurement": "Log2 Expression Level", "setting": "[4]; gene #99 of Table 8", "value": 8.88}, {"measurement": "Log2 Expression Level", "setting": "[4]; gene #100 of Table 8", "value": 6.73}]}, {"smiles": "CC12CCC(CC1=O)C2(C)C", "note": "(centres unmarked) [camphor]", "values": [{"measurement": "HAI titer / adjuvant effect with the same dose of Fluzone", "setting": "[1]", "value": "improved"}]}]}
